In the supplement of paper PMC10307832:

Key:
Assay in all cases: relative viability (nuclei count vs DMSO), 5 days (fraction); higher = more cells survive
XMD14-99 + Tozasertib = compound: CN1CCN(CC1)C2=CC(=C(C=C2)NC3=NC(=C(S3)C(=O)C4=C(C=CC=C4Cl)Cl)N)OC [XMD14-99] + Cc1cc(Nc2cc(N3CCN(C)CC3)nc(Sc3ccc(NC(=O)C4CC4)cc3)n2)n[nH]1 [Tozasertib] (partner 0.1 µM)
Procedure, shortened: (§1)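 Lung cancer cell lines, seeded in 1536-well plates, were treated the following day by pin tool with a single drug or with five library-drug doses (not always all listed) in √10 steps on top of a fixed anchor-drug dose. Cells were fixed and nuclei stained in one step after 5 days, and nuclei were counted. Relative viability is the nuclei count for treated wells divided by that for vehicle wells, reported as medians of duplicate plates.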

AZD1208 + Foretinib = compound: N[C@@H]1CCCN(c2c(/C=C3\SC(=O)NC3=O)cccc2-c2ccccc2)C1 [AZD1208] + COc1cc2c(Oc3ccc(NC(=O)C4(C(=O)Nc5ccc(F)cc5)CC4)cc3F)ccnc2cc1OCCCN1CCOCC1 [Foretinib] (partner 0.25 µM)
Procedure, shortened: as §1

AZD1208 + Bortezomib = compound: N[C@@H]1CCCN(c2c(/C=C3\SC(=O)NC3=O)cccc2-c2ccccc2)C1 [AZD1208] + CC(C)C[C@H](NC(=O)[C@H](Cc1ccccc1)NC(=O)c1cnccn1)B(O)O [Bortezomib] (partner 0.002 µM)
Procedure, shortened: as §1

AZD1208 + Linsitinib = compound: N[C@@H]1CCCN(c2c(/C=C3\SC(=O)NC3=O)cccc2-c2ccccc2)C1 [AZD1208] + C[C@]1(O)C[C@@H](c2nc(-c3ccc4ccc(-c5ccccc5)nc4c3)c3c(N)nccn32)C1 [Linsitinib] (partner 1 µM)
Procedure, shortened: as §1

| Cell Line | relative viability (XMD14-99 + Tozasertib; first compound 0.08 µM) | relative viability (XMD14-99 + Tozasertib; first compound 0.8 µM) | relative viability (XMD14-99 + Tozasertib; first compound 2.53 µM) | relative viability (XMD14-99 + Tozasertib; first compound 8 µM) | relative viability (AZD1208 + Foretinib; first compound 0.08 µM) | relative viability (AZD1208 + Foretinib; first compound 0.253 µM) | relative viability (AZD1208 + Foretinib; first compound 0.8 µM) | relative viability (AZD1208 + Foretinib; first compound 2.53 µM) | relative viability (AZD1208 + Foretinib; first compound 8 µM) | relative viability (AZD1208 + Bortezomib; first compound 0.08 µM) | relative viability (AZD1208 + Bortezomib; first compound 0.253 µM) | relative viability (AZD1208 + Bortezomib; first compound 0.8 µM) | relative viability (AZD1208 + Bortezomib; first compound 2.53 µM) | relative viability (AZD1208 + Bortezomib; first compound 8 µM) | relative viability (AZD1208 + Linsitinib; first compound 0.08 µM) | relative viability (AZD1208 + Linsitinib; first compound 0.253 µM) | relative viability (AZD1208 + Linsitinib; first compound 0.8 µM) | relative viability (AZD1208 + Linsitinib; first compound 2.53 µM) | relative viability (AZD1208 + Linsitinib; first compound 8 µM) |
| --- | --- | --- | --- | --- | --- | --- | --- | --- | --- | --- | --- | --- | --- | --- | --- | --- | --- | --- | --- |
| NCI-H1651 | 0.767 | 0.645 | 0.657 | 0.556 | 0.637 | 0.827 | 0.665 | 0.768 | 0.588 | 0.978 | 0.925 | 0.858 | 0.96 | 0.816 | 0.912 | 0.619 | 0.758 | 0.852 | 0.83 |
| NCI-H1666 | 0.61 | 0.582 | 0.498 | 0.537 | 0.906 | 1 | 0.953 | 0.954 | 0.975 | 0.828 | 0.745 | 0.783 | 0.637 | 0.579 | 0.831 | 0.677 | 0.748 | 0.671 | 0.657 |
| NCI-H1734 | 0.288 | 0.244 | 0.248 | 0.227 | 0.773 | 0.814 | 0.738 | 0.755 | 0.56 | 0.831 | 1.05 | 0.811 | 0.991 | 0.611 | 0.728 | 0.807 | 0.795 | 0.791 | 0.603 |
| NCI-H1755 | 0.519 | 0.531 | 0.478 | 0.512 | 0.908 | 0.892 | 0.851 | 0.861 | 0.787 | 0.97 | 1.06 | 0.96 | 1.02 | 0.904 | 0.993 | 0.995 | 0.913 | 0.998 | 0.95 |
| NCI-H1915 | 0.423 | 0.42 | 0.428 | 0.386 | 1.12 | 1.09 | 1.11 | 1.11 | 1.03 | 0.976 | 1.07 | 0.956 | 0.94 | 1.06 | 1.15 | 1.09 | 1.06 | 1.1 | 1.11 |
| NCI-H1975 | 0.693 | 0.733 | 0.656 | 0.281 | 1.06 | 0.959 | 0.855 | 0.853 | 0.972 | 0.415 | 0.404 | 0.304 | 0.353 | 0.357 | 0.991 | 1 | 0.911 | 0.981 | 0.975 |
| NCI-H1993 | 0.602 | 0.68 | 0.549 | 0.571 | 0.763 | 0.664 | 0.581 | 0.71 | 0.713 | – | 1.04 | 0.925 | 0.998 | 0.888 | – | 0.722 | 0.731 | 0.739 | 0.654 |
| NCI-H2009 | 0.683 | 0.617 | 0.541 | 0.399 | 1.23 | 1.2 | 1.14 | 1.26 | 1.16 | 1.01 | 1.09 | 0.968 | 0.832 | 1.02 | 1.22 | 1.13 | 1.18 | 1.14 | 1.12 |
| NCI-H2023 | 0.396 | 0.332 | 0.302 | 0.185 | 0.811 | 0.462 | 0.795 | 0.805 | 0.634 | 0.888 | 1.02 | 0.983 | 0.695 | 0.849 | 0.651 | 0.56 | 0.576 | 0.633 | 0.568 |
| NCI-H2085 | 0.752 | 0.779 | 0.716 | 0.464 | 0.965 | 0.97 | 1.23 | 0.886 | 0.748 | 1.07 | 1.2 | 0.938 | 1.14 | 1.05 | 0.913 | 1.04 | 0.892 | 0.939 | 0.946 |
| NCI-H2087 | 0.225 | 0.253 | 0.228 | 0.169 | 1.17 | 1.26 | 0.89 | 0.977 | 0.988 | 0.827 | 1.01 | 0.846 | 0.941 | 0.909 | 0.87 | 0.941 | 0.934 | 1 | 0.787 |
| NCI-H2126 | 0.811 | 0.806 | 0.791 | 0.693 | 1.19 | 0.834 | 0.766 | 1.09 | 0.931 | 1.1 | 1.14 | 1.09 | 1.07 | 1.1 | 0.678 | 0.647 | 0.65 | 0.633 | 0.623 |
| NCI-H2228 | 0.234 | 0.258 | 0.187 | 0.148 | 0.78 | 0.809 | 0.635 | 0.842 | 0.761 | 1.15 | 1.15 | 0.865 | – | 0.704 | 0.493 | 0.596 | 0.546 | – | 0.356 |
| NCI-H2347 | 0.555 | 0.641 | 0.442 | 0.405 | 0.867 | 0.671 | 0.987 | 0.917 | 0.742 | 0.933 | 0.734 | 0.822 | 0.791 | 1.08 | 0.936 | 0.94 | 0.91 | 0.942 | 0.909 |
| NCI-H2405 | 0.758 | 0.713 | 0.701 | 0.501 | 1.03 | 1 | 0.991 | 1.06 | 0.993 | 0.986 | 1.01 | 0.936 | 1.01 | 0.989 | 0.8 | 0.789 | 0.737 | 0.883 | 0.853 |
| NCI-H3122 | 0.407 | 0.314 | 0.295 | 0.179 | 0.991 | 1.05 | 0.924 | 1.08 | 0.945 | 1.02 | 1.04 | 1.04 | 1.06 | 1.06 | 1.09 | 1.03 | 1.03 | 1.02 | 1.08 |
| PC-3 [JPC-3] | 0.889 | 0.828 | 0.789 | 0.705 | 1.11 | 1.06 | 1.14 | 1.13 | 1.04 | 0.833 | 0.972 | 0.887 | 0.927 | 0.855 | 1.05 | 1.01 | 1.02 | 1.06 | 1 |
